Read-outs that look alike come from different tables or passages of the source.
How the values were obtained:
[1] = Hygroscopicity of the solid; format: physicochemical; settings: free-flowing solid

Hygroscopicity [1]: non-hygroscopic
Change on heating in a vacuum oven (about 4 hours, temperature range of about 45° C. up to 110° C.): No change was observed
Temperature up to which the solid is stable towards heating (under reduced pressure): ≤ 110 °C
Compound: CNC(=O)c1cc(Oc2ccc(NC(=O)Nc3ccc(Cl)c(C(F)(F)F)c3)cc2)ccn1 [Sorafenib dimethyl sulphoxide solvate, dimethyl sulphoxide solvate of 4-(4-{3-[-4-chloro-3-(trifluoromethyl)phenyl]ureido}phenoxy)-N^2-methylpyridine-2-carboxamide]
Change on heating in a vacuum oven (about 120° C. and about 135° C. for about 4 hours): Desolvation of sorafenib dimethyl sulphoxide solvate to sorafenib free base was observed

From patent publication US8618305B2, “Sorafenib dimethyl sulphoxide solvate” (Ranbaxy Laboratories Limited, priority 2010, dated 2013)
